Common to all, as to type: cell-based
Assay [1] addresses T1, AHR (Homo sapiens, UniProt P35869).
T1 sequence (P35869 11-848): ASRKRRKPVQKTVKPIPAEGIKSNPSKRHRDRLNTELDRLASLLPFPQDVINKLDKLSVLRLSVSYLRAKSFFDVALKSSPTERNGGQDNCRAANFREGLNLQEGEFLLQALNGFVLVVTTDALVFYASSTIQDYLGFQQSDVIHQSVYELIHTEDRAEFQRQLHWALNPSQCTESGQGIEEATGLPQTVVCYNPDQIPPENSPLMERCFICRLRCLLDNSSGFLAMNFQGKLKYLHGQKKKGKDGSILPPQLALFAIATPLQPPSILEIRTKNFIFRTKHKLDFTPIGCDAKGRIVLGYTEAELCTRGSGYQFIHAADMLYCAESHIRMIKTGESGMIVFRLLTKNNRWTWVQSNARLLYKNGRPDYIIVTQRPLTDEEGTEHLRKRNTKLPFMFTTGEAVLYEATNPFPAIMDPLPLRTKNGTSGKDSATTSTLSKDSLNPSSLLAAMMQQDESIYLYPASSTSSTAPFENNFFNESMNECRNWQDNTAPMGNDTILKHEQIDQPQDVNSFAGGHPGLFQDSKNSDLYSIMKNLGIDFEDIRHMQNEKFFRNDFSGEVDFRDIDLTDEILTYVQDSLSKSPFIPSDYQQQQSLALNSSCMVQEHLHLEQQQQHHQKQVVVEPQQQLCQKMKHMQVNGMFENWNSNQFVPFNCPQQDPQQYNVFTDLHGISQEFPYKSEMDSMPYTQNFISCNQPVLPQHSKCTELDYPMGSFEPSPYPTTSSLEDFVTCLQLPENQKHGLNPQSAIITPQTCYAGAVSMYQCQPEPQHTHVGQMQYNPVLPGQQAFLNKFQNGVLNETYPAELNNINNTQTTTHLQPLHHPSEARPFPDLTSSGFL
In words: In vitro assay 2: agonism in human cell line (transactivation assay, U87 cells, DRE firefly luciferase reporter). Also on record: host or cells: U87 glioblastoma cells, stably transfected with DRE firefly luciferase and renilla reporter constructs. Conditions: no kynurenic acid, 20 hours, read-out: Assay 2: AHR-luc Hum Agonism IC50. In short, it runs like this:
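U87 glioblastoma cells with endogenous AHR, stably carrying DRE-driven firefly luciferase and constitutive renilla reporters. 300 uM kynurenic acid served as positive activation control; data normalized to positive and negative controls.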
A general note: In a reporter assay the amount or activity of a reporter protein is the signal.

For assay [2], the target named is T1, AHR. Description: In vitro assay 3: AHR-regulated CYP1A1 expression in human cell line (U937, qPCR, KA stimulation). Conditions: U937 cells, 200 uM KA, 6 hours, CYP1A1 expression by qPCR; read-out: Assay 3: Hum CYP1A1 Antagonism IC50. How it is done: In Vitro Assay 3: AHR-Regulated CYP1A1 Expression in Human Cell Line
To assess the AHR inhibitory activity of the substances described in this application, the ability thereof to antagonise ligand-induced AHR gene regulation in a dose-dependent manner was quantified. For this purpose, quantitative PCR analysis was used to determine expression of the AHR-regulated gene CYP1A1 in a human monocytic U937 cell line upon stimulation with 200 uM KA in the presence and absence of AHR inhibitor. […] CYP1A1 expression was induced with 200 uM KA (positive control) in the presence or absence of the substances for 6 hours. Human U937 cells were typically incubated with eight different concentrations of the substances (1 nM, 3 nM, 10 nM, 30 nM, 100 nM, 300 nM, 1 uM and 3 uM) and analyzed in duplicate on the same microtitre plate. […] Unstimulated cells were used as the negative control. Taqman probes for human CYP1A1 (Hs01054797_g1) and human HPRT (Hs02800695_m1) were used to analyze fold expression of CYP1A1 of HPRT. Quantitation was performed on a Taqman SDS7900HT.

In assay [3] the target is T1, AHR. Description: In vitro assay 1: antagonism in human cell line (transactivation assay, U87 cells prestimulated with kynurenic acid, DRE firefly luciferase reporter). Also on record: host or cells: U87 glioblastoma cells, stably transfected with DRE firefly luciferase and renilla reporter constructs. The following applies: 150 uM kynurenic acid, 20 hours, read-out: Assay 1: AHR-luc Hum Antagonism IC50. The essentials: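 U87 glioblastoma cells with endogenous AHR, stably carrying a DRE-driven firefly luciferase reporter and a constitutive renilla reporter. Cells prestimulated with the AHR agonist kynurenic acid before compound addition; data normalized to positive and negative controls.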

Usually IC50 stands for the point on the concentration scale where inhibition reaches its midpoint. On to `Cc1ccc(-c2cc(C(=O)NCC(O)C(F)(F)F)c(=O)n(-c3cnn(C)c3)n2)cc1` (stereo not drawn) [Example 10, 6-(4-Methylphenyl)-2-(1-methyl-1H-pyrazol-4-yl)-3-oxo-N-(3,3,3-trifluoro-2-hydroxypropyl)-2,3-dihydropyridazine-4-carboxamide], for which the IC50 was above 20000 nM on AHR [1], 10.2 nM on AHR [2] and 4.25 nM at AHR [3].
The matching figures for `CC(C)(O)CNC(=O)c1cc(-c2ccc(Cl)cc2)nn(-c2cccnc2)c1=O` [Example 71, 6-(4-Chlorophenyl)-N-(2-hydroxy-2-methylpropyl)-3-oxo-2-(pyridin-3-yl)-2,3-dihydropyridazine-4-carboxamide]: above 20000 nM, 60.7 nM and 38 nM.
The matching figures for `Cn1cc(-n2nc(-c3ccc(C(F)F)cc3)cc(C(=O)N[C@@H]3COC[C@@H]3O)c2=O)cn1` (single isomer, unassigned) [Example 315, 6-[4-(Difluoromethyl)phenyl]-N-[(cis)-4-hydroxytetrahydro-furan-3-yl]-2-(1-methyl-1H-pyrazol-4-yl)-3-oxo-2,3-dihydropyridazine-4-carboxamide]: above 20000 nM, 11.9 nM and 15.9 nM.
The matching figures for `O=C(NC[C@H](O)C(F)(F)F)c1cc(-c2ccc(OC(F)F)cc2)nn(-c2cccnc2)c1=O` [Example 314, 6-[4-(Difluoromethoxy)phenyl]-3-oxo-2-(pyridin-3-yl)-N-[(2S)-3,3,3-trifluoro-2-hydroxypropyl]-2,3-dihydropyridazine-4-carboxamide]: above 20000 nM, 10.9 nM and 5.8 nM.
In the case of `Cn1cc(-n2nc(-c3ccc(Cl)cc3)cc(C(=O)N[C@H]3CCC[C@H]3O)c2=O)cn1` [Example 50, 6-(4-Chlorophenyl)-N-[(1S,2R)-2-hydroxycyclopentyl]-2-(1-methyl-1H-pyrazol-4-yl)-3-oxo-2,3-dihydropyridazine-4-carboxamide], the IC50 at AHR [1] is above 20000 nM; on AHR [2], 6.74 nM; at AHR [3] it was 8.39 nM.
For `C[C@H](NC(=O)c1cc(-c2ccc(OC(F)F)cc2)nn(-c2cnn(C)c2)c1=O)C(C)(C)O` [Example 309, 6-[4-(Difluoromethoxy)phenyl]-N-[(2S)-3-hydroxy-3-methylbutan-2-yl]-2-(1-methyl-1H-pyrazol-4-yl)-3-oxo-2,3-dihydropyridazine-4-carboxamide], the IC50 is above 20000 nM at AHR [1], 40.3 nM at AHR [2] and 16.4 nM at AHR [3].
The matching figures for `O=C(NC(CO)C1CC1)c1cc(-c2ccc(Cl)cc2)nn(-c2cccnc2)c1=O` (racemic) [Example 77, 6-(4-Chlorophenyl)-N-[(1RS)-1-cyclopropyl-2-hydroxyethyl]-3-oxo-2-(pyridin-3-yl)-2,3-dihydropyridazine-4-carboxamide]: above 20000 nM, 8.7 nM and 11.2 nM.
Turning to `Cn1cc(-n2nc(-c3ccc(C(F)(F)F)cc3)cc(C(=O)N[C@@H]3CCC[C@H]3O)c2=O)cn1` [Example 248, N-[(1R,2R)-2-Hydroxycyclo-pentyl]-2-(1-methyl-1H-pyrazol-4-yl)-3-oxo-6-[4-(trifluoromethyl)phenyl]-2,3-dihydropyridazine-4-carboxamide], the figures for the IC50 at AHR [1], at AHR [2] and at AHR [3] were above 20000 nM, 31.3 nM and 14.1 nM, respectively.
`O=C(NC[C@H](O)C(F)(F)F)c1cc(-c2ccc(C(F)F)cc2)nn(-c2cccnc2)c1=O` [Example 313, 6-[4-(Difluoromethyl)phenyl]-3-oxo-2-(pyridin-3-yl)-N-[(2S)-3,3,3-trifluoro-2-hydroxypropyl]-2,3-dihydropyridazine-4-carboxamide]: the IC50 at AHR [1] was above 20000 nM; on AHR [2], 3.81 nM; on AHR [3], 2.63 nM.
For `O=C(N[C@H]1CCC[C@@H]1O)c1cc(-c2ccc(C(F)F)cc2)nn(-c2cccnc2)c1=O` [Example 139, 6-[4-(Difluoromethyl)phenyl]-N-[(1S,2S)-2-hydroxycyclopentyl]-3-oxo-2-(pyridin-3-yl)-2,3-dihydropyridazine-4-carboxamide], the IC50 on AHR [1] is above 20000 nM; on AHR [2] it was 9.16 nM; at AHR [3], 9.2 nM.
On to `CC(C)(O)CNC(=O)c1cc(-c2ccc(Cl)cc2)nn(-c2csc(Cl)c2)c1=O` [Example 250, 6-(4-Chlorophenyl)-2-(5-chloro-3-thienyl)-N-(2-hydroxy-2-methylpropyl)-3-oxo-2,3-dihydropyridazine-4-carboxamide], for which the IC50 at AHR [1] was above 20000 nM; on AHR [2], 10.5 nM; on AHR [3] it was 16.9 nM.
The matching figures for `O=C(NC[C@H](O)C(F)(F)F)c1cc(-c2ccc(Cl)cc2)nn(-c2csc(Cl)c2)c1=O` [Example 232, 6-(4-Chlorophenyl)-2-(5-chloro-3-thienyl)-3-oxo-N-[(2S)-3,3,3-trifluoro-2-hydroxypropyl]-2,3-dihydropyridazine-4-carboxamide]: above 20000 nM, 7.38 nM and 8.16 nM.
The matching figures for `O=C(N[C@H]1COC[C@H]1O)c1cc(-c2ccc(OC(F)(F)F)cc2)nn(-c2cccnc2)c1=O` (single isomer, unassigned; enantiomer 1) [Example 158, N-[(cis)-4-Hydroxytetrahydrofuran-3-yl]-3-oxo-2-(pyridin-3-yl)-6-[4-(trifluoromethoxy)phenyl]-2,3-dihydropyridazine-4-carboxamide, Enantiomer 1]: above 20000 nM, 25.2 nM and 21.8 nM.
The matching figures for `Cn1cc(-n2nc(-c3ccc(C(F)F)cc3)cc(C(=O)NCC(C)(C)O)c2=O)cn1` [Example 62, 6-[4-(Difluoromethyl)phenyl]-N-(2-hydroxy-2-methylpropyl)-2-(1-methyl-1H-pyrazol-4-yl)-3-oxo-2,3-dihydropyridazine-4-carboxamide]: above 20000 nM, 19.1 nM and 29.5 nM.
For the molecule `O=C(N[C@@H]1COC[C@@H]1O)c1cc(-c2ccc(C(F)(F)F)cc2)nn(-c2cccnc2)c1=O` (single isomer, unassigned) [Example 229, (+)-N-cis-4-Hydroxytetra-hydrofuran-3-yl-3-oxo-2-(pyridin-3-yl)-6-[4-(trifluoromethyl)phenyl]-2,3-dihydropyridazine-4-carboxamide], the IC50 at AHR [1] was above 20000 nM; at AHR [2], 12.2 nM; at AHR [3] it was 7.09 nM.
The matching figures for `O=C(NC[C@H](O)C(F)F)c1cc(-c2ccc(OC(F)(F)F)cc2)nn(-c2cccnc2)c1=O` [Example 295, N-[(2S)-3,3-Difluoro-2-hydroxypropyl]-3-oxo-2-(pyridin-3-yl)-6-[4-(trifluoromethoxy)phenyl]-2,3-dihydropyridazine-4-carboxamide]: above 20000 nM, 89.9 nM and 31.9 nM.
The matching figures for `O=C(NC[C@@H](O)CO)c1cc(-c2ccc(Cl)cc2)nn(-c2cccnc2)c1=O` [Example 73, (+)-6-(4-Chlorophenyl)-N-[(2R)-2,3-dihydroxypropyl]-3-oxo-2-(pyridin-3-yl)-2,3-dihydropyridazine-4-carboxamide]: above 20000 nM, 355 nM and 283 nM.
